From paper PMC3992280 (Biochimica et biophysica acta, 2014)
Converted amounts (≈) assume the structure as drawn. Where two headings read alike, the source gives them in different places.

Legend:
[1] = test system: Staphylococcus aureus; settings: in mice; cited from earlier work
[2] = test system: Mycobacterium tuberculosis; settings: M. tuberculosis; cited from earlier work
[3] = target: T1, tear lipocalin (Homo sapiens, UniProt P31025); assay: Protection from oxidation of rifamycins by tear lipocalin; type: physicochemical; settings: tear lipocalin 100 μM; for oxidation by K3Fe(CN)6 after initial protection with tear lipocalin: K3Fe(CN)6 90 μM added after 180 min; for duration of protection from autoxidation by tear lipocalin: drug 15 μM, pH 7.3
[4] = target: T1, tear lipocalin; settings: read-out: Kd for tear lipocalin; known dissociation constant; cited from earlier work
[5] = monitored at 475 nm; cited from earlier work
[6] = test system: serum albumin; settings: cited from earlier work
[7] = Autoxidation of rifamycins in phosphate buffer; type: physicochemical; settings: for spectral changes under autoxidizing conditions: phosphate buffer pH 7.3, trace metals, up to 24 h
[8] = test system: Mycobacterium smegmatis strain mc^2155; assay: microbe, parasite or virus in culture; type: cell-based; settings: for MIC: Mycolicibacterium smegmatis, MC^2155, 120 h; for resistance factor R (MICwt/MICmutant): mc^2155 versus RHS 234
[9] = test system: Mycobacterium smegmatis strain RHS 234; type: cell-based; settings: Mycolicibacterium smegmatis, RHS234, 120 h
[10] = target: T1, tear lipocalin; assay: Rifamycin binding to tear lipocalin; settings: increase in binding affinity to tear lipocalin
[11] = in vivo; cited from earlier work
[12] = test system: CYP3A4; settings: cited from earlier work
[13] = in vivo; cited from earlier work; remark: listed apart in the source

T1 sequence (P31025 19-176): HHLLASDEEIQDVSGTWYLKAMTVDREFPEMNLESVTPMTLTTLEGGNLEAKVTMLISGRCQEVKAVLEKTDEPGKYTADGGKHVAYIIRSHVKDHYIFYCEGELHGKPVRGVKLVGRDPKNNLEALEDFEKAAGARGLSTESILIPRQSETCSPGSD

Compound	oxidation by K3Fe(CN)6 after initial protection with tear lipocalin [3]	duration of protection from autoxidation by tear lipocalin [3]	spectral changes under autoxidizing conditions [7]	MIC [8] [µM]	MIC [9] [µM]	other results
CO[C@H]1/C=C/O[C@@]2(C)Oc3c(C)c(O)c4c(c3C2=O)C(=O)C=C(NC(=O)/C(C)=C\C=C\[C@H](C)[C@H](O)[C@@H](C)[C@@H](O)[C@@H](C)[C@H](OC(C)=O)[C@@H]1C)C4=O [Rifamycin S]						ED50 compared with rifamycin SV [1]: higher ED50, than rifamycin SV; MIC [2]: .05 µg/mL (≈ 0.0719 µM)
CO[C@H]1/C=C/O[C@@]2(C)Oc3c(C)c(O)c4c(O)c(c(/C=N/N5CCN(C)CC5)c(O)c4c3C2=O)NC(=O)/C(C)=C\C=C\[C@H](C)[C@H](O)[C@@H](C)[C@@H](O)[C@@H](C)[C@H](OC(C)=O)[C@@H]1C [Rifampin]	rapidly oxidized	at least 3 h	show spectral changes under autoxidizing conditions	2.43 (≈ 2 µg/mL)	0.3 (≈ 0.247 µg/mL)	Kd [4]: 128 µM; spectral changes of autoxidation, completeness [5]: nearly complete after 24 h; bound to serum albumin [6]: 80-85%
CO[C@H]1/C=C/O[C@@]2(C)Oc3c(C)c(O)c4c(O)c(c(/C=N/N5CCN(C6CCCC6)CC5)c(O)c4c3C2=O)NC(=O)/C(C)=C\C=C\[C@H](C)[C@H](O)[C@@H](C)[C@@H](O)[C@@H](C)[C@H](OC(C)=O)[C@@H]1C [Rifapentine]	rapidly oxidized	at least 3 h	show spectral changes under autoxidizing conditions	< 2.28	0.14 (≈ 0.123 µg/mL)	
CO[C@H]1/C=C/O[C@@]2(C)Oc3c(C)c(O)c4c(=O)c(c5oc6cc(N7CCN(CC(C)C)CC7)cc(O)c6nc-5c4c3C2=O)NC(=O)/C(C)=C\C=C\[C@H](C)[C@H](O)[C@@H](C)[C@@H](O)[C@@H](C)[C@H](OC(C)=O)[C@@H]1C [Rifalazil]			did not show spectral changes under autoxidizing conditions	0.13 (≈ 0.122 µg/mL)	< 0.06	free energy change of binding, rifalazil over rifampin [10]: about 2.4 kcal/mole; side effects [11]: transient flue-symptoms, neutropenia, and thrombocytopenia; induction of CYP3A4 [12]: Notably lacking; bound to serum albumin ([6]; in the circulation of animals): 99%; mycobactericidal activity relative to rifampin [8]: 16 times; resistance factor R (MICwt/MICmutant) [8]: 2; resistance factor R (MICwt/MICmutant) ([8]; listed as rifalazil): ≈ 2; evidence of hepatotoxicity [13]: Notably lacking
CO[C@H]1/C=C/O[C@@]2(C)Oc3c(C)c(O)c4c(O)c(c5c(nc6cc(C)ccn65)c4c3C2=O)NC(=O)/C(C)=C\C=C\[C@H](C)[C@H](O)[C@@H](C)[C@@H](O)[C@@H](C)[C@H](OC(C)=O)[C@@H]1C [Rifaximin]			did not show spectral changes under autoxidizing conditions	< 1.27	0.16 (≈ 0.126 µg/mL)	
CO[C@H]1/C=C/O[C@@]2(C)Oc3c(C)c(O)c4c(O)c(cc(O)c4c3C2=O)NC(=O)/C(C)=C\C=C\[C@H](C)[C@H](O)[C@@H](C)[C@@H](O)[C@@H](C)[C@H](OC(C)=O)[C@@H]1C [Rifamycin SV]	appeared better protected	at least 3 h	show spectral changes under autoxidizing conditions	< 1.38	0.69 (≈ 0.481 µg/mL)	MIC [2]: .05 µg/mL (≈ 0.0717 µM); fraction oxidized ([7]; within 30 minutes): less than 10%
CO[C@H]1/C=C/O[C@@]2(C)Oc3c(C)c(O)c4c(c3C2=O)C2=NC3(CCN(CC(C)C)CC3)NC2=C(NC(=O)/C(C)=C\C=C\[C@H](C)[C@H](O)[C@@H](C)[C@@H](O)[C@@H](C)[C@H](OC(C)=O)[C@@H]1C)C4=O [Rifabutin]			did not show spectral changes under autoxidizing conditions	0.3 (≈ 0.254 µg/mL)	0.07 (≈ 0.0593 µg/mL)	
